Test results published in the supplement of paper PMC4121296.

Tests used:
Conditions in all cases: exposure: 5-72 hpf
[1] = system: Danio rerio embryo (fli1:egfp); assay: heart rate at 72 hpf (beats per minute); higher = faster heart rate
Procedure: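 fli1:egfp zebrafish embryos exposed 5-72 hpf to chemical (0.05-50 µM, 0.1% DMSO) in 384-well plates; heart rate at 72 hpf quantified from stream acquisitions by semi-automated MetaXpress journal (peak counting); only embryos in concentrations passing survival/body-length criteria analyzed.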

[2] = system: Danio rerio embryo (fli1:egfp); assay: body length at 72 hpf (µm); higher = longer body (less growth inhibition)
Procedure: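 Transgenic fli1:egfp zebrafish embryos (one per well, 384-well plate) exposed statically from 5 to 72 hpf at 28 °C to chemical (0.05-50 µM, 0.1% DMSO); at 72 hpf anesthetized and imaged on ImageXpress; body length of live, hatched, correctly oriented embryos measured by automated MetaXpress journal. Dead/unhatched/misoriented embryos have no value.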

[3] = system: Danio rerio embryo (fli1:egfp); assay: pericardial area at 72 hpf (image area units (not stated)); higher = larger pericardial area (edema)
Procedure: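 fli1:egfp zebrafish embryos exposed 5-72 hpf to chemical (0.05-50 µM, 0.1% DMSO); pericardial area at 72 hpf measured by semi-automated MetaXpress journal (increase indicates edema).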

[4] = system: Danio rerio embryo (fli1:egfp); assay: arterial (dorsal aorta) circulation score at 72 hpf (normalized DA-Max (arbitrary units)); higher = more circulation
Procedure: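 fli1:egfp zebrafish embryos exposed 5-72 hpf to chemical (0.05-50 µM, 0.1% DMSO); arterial circulation at 72 hpf quantified from stream acquisitions of the dorsal aorta by FFT-based analysis (DA-Max, normalized dorsal aorta signal); only concentrations passing survival/body-length criteria analyzed.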

[5] = system: Danio rerio embryo (fli1:egfp); assay: intersegmental vessel area normalized to body length at 72 hpf (ISV area / body length (normalized units)); higher = more vessel area
Procedure: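 fli1:egfp zebrafish embryos exposed 5-72 hpf to chemical (0.05-50 µM, 0.1% DMSO); intersegmental vessel (ISV) eGFP area quantified by MetaXpress journal at 72 hpf and normalized to body length.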

CCOC(=O)C(C)OC(=O)c1cc(Oc2ccc(C(F)(F)F)cc2Cl)ccc1[N+](=O)[O-] (stereo unspecified) [Lactofen]
Conditions | arterial, [4] | body length at 72 hpf, [2] | heart rate at 72 hpf, [1] | intersegmental vessel area normalized, [5] | pericardial area at 72 hpf, [3]
0.05 µM | 8.21 | 3000 | 189 | 84.8 | 13400
0.098 µM | 7.39 | 3000 | 187 | 87.9 | 17300
0.195 µM | 8.26 | 2990 | 191 | 81.5 | 15800
0.39 µM | 8.42 | 2940 | 188 | 83.3 | 15800
0.78 µM | 5.92 | 2950 | 191 | 82.4 | 19300
1.56 µM | 6.43 | 2980 | 193 | 85.2 | 19800
3.125 µM | 5.46 | 2960 | 190 | 88 | 21500
6.25 µM | 4.85 | 2910 | 188 | 92.9 | 21200
12.5 µM | 4.13 | 2910 | 187 | 99.7 | 23900

CC(C)Oc1cc(-n2nc(C(C)(C)C)oc2=O)c(Cl)cc1Cl [Oxadiazon]
Conditions | arterial, [4] | body length at 72 hpf, [2] | heart rate at 72 hpf, [1] | intersegmental vessel area normalized, [5] | pericardial area at 72 hpf, [3]
0.05 µM | 14.6 | 3090 | 179 | 85.1 | 14800
0.098 µM | 14 | 3060 | 184 | 88.1 | 13700
0.195 µM | 13.8 | 3090 | 190 | 90.3 | 15400
0.39 µM | 14.5 | 3060 | 186 | 82.3 | 15400
0.78 µM | 13.1 | 3040 | 182 | 82.4 | 16500
1.56 µM | 15.4 | 2950 | 183 | 83.4 | 14900
3.125 µM | 13.2 | 3060 | 188 | 85.6 | 15800
6.25 µM | 14.1 | 3120 | 190 | 90.4 | 16000
12.5 µM | 11.5 | 3000 | 181 | 94.5 | 17300
25 µM | 9.56 | 2960 | 155 | 90.2 | 16800

CCOc1cc(Oc2ccc(C(F)(F)F)cc2Cl)ccc1[N+](=O)[O-] [Oxyfluorfen]
Conditions | arterial, [4] | body length at 72 hpf, [2] | heart rate at 72 hpf, [1] | intersegmental vessel area normalized, [5] | pericardial area at 72 hpf, [3]
0.0244 µM | 12.2 | 3050 | 183 | 86.8 | 14300
0.05 µM | 15 | 3020 | 178 | 86.7 | 14500
0.098 µM | 13.5 | 2990 | 180 | 88.8 | 14900
0.195 µM | 15.8 | 2990 | 187 | 79 | 14500
0.39 µM | 14.3 | 2990 | 185 | 95.7 | 15500
0.78 µM | 13.4 | 3000 | 192 | 90.7 | 13400
1.56 µM | 14.4 | 2850 | 190 | 89.4 | 13400
3.125 µM | 12 | 2980 | 193 | 87.2 | 16200
6.25 µM | 10.5 | 2960 | 194 | 100 | 15900
12.5 µM | 7.87 | 2840 | 192 | 90.5 | 15300
25 µM | – | 2660 | – | – | –

CCOC(=O)COc1cc(-c2nn(C)c(OC(F)F)c2Cl)c(F)cc1Cl [Pyraflufen-ethyl]
Conditions | arterial, [4] | body length at 72 hpf, [2] | heart rate at 72 hpf, [1] | intersegmental vessel area normalized, [5] | pericardial area at 72 hpf, [3]
0.05 µM | 10.9 | 3030 | 171 | 83.6 | 15700
0.098 µM | 8.57 | 3020 | 174 | 92.3 | 15400
0.195 µM | 10.5 | 3020 | 174 | 84.6 | 15300
0.39 µM | 9.67 | 3040 | 167 | 86.7 | 17100
0.78 µM | 10.2 | 2950 | 169 | 81.6 | 16800
1.56 µM | 7.3 | 2980 | 169 | 85.2 | 20600
3.125 µM | 4.92 | 2960 | 160 | 86.2 | 20000
6.25 µM | 3.84 | 2890 | 163 | 86 | 25300
25 µM | 3.2 | 2790 | 148 | 96.9 | 25400
